Our source for the relative viability values is the supplement of paper PMC10307832.

What all share (assay): relative viability (nuclei count vs DMSO), 5 days (fraction); higher = more cells survive
Compound in the assay “Vismodegib + Linsitinib”: CS(=O)(=O)c1ccc(C(=O)Nc2ccc(Cl)c(-c3ccccn3)c2)c(Cl)c1 [Vismodegib] + C[C@]1(O)C[C@@H](c2nc(-c3ccc4ccc(-c5ccccc5)nc4c3)c3c(N)nccn32)C1 [Linsitinib] (partner 1 µM)
The gist of the method:
(§1)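 Values are medians from duplicate plates. Each reflects relative viability, defined as the nuclei count of treated wells over that of vehicle wells. Lung cancer cell lines in 1536-well plates were pin-tool dosed one day after seeding with one drug alone or with a fixed anchor-drug dose plus five library-drug doses (not always all listed) in √10 steps, then fixed, stained and imaged at 4× after 5 days.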

Compound in the assay “Ruxolitinib + Luminespib”: N#CC[C@H](C1CCCC1)n1cc(-c2ncnc3[nH]ccc23)cn1 [Ruxolitinib] + CCNC(=O)c1noc(-c2cc(C(C)C)c(O)cc2O)c1-c1ccc(CN2CCOCC2)cc1 [Luminespib] (partner 0.01 µM)
The gist of the method:
as §1

Compound in the assay “Ruxolitinib + OSI-027”: N#CC[C@H](C1CCCC1)n1cc(-c2ncnc3[nH]ccc23)cn1 [Ruxolitinib] + COc1cccc2cc(-c3nc([C@H]4CC[C@H](C(=O)O)CC4)n4ncnc(N)c34)[nH]c12 [OSI-027] (partner 0.5 µM)
The gist of the method: as §1

Compound in the assay “Ruxolitinib + Pemetrexed”: N#CC[C@H](C1CCCC1)n1cc(-c2ncnc3[nH]ccc23)cn1 [Ruxolitinib] + Nc1nc2[nH]cc(CCc3ccc(C(=O)N[C@@H](CCC(=O)O)C(=O)O)cc3)c2c(=O)[nH]1 [Pemetrexed] (partner 0.2 µM)
The gist of the method: as §1

In the case of NCI-H3122, the relative viability was found to be 1.03 with Vismodegib + Linsitinib (first compound 0.08 µM); 1.01 with Vismodegib + Linsitinib (first compound 0.253 µM); 1.01 with Vismodegib + Linsitinib (first compound 0.8 µM); 0.924 with Vismodegib + Linsitinib (first compound 2.53 µM); 0.965 with Vismodegib + Linsitinib (first compound 8 µM); 0.13 in the assay with Ruxolitinib + Luminespib (first compound 0.08 µM). Further, the relative viability with Ruxolitinib + Luminespib (first compound 0.253 µM) turned out to be 0.108; with Ruxolitinib + Luminespib (first compound 0.8 µM) it was 0.0859; in the assay with Ruxolitinib + Luminespib (first compound 2.53 µM), 0.0958; with Ruxolitinib + Luminespib (first compound 8 µM), 0.113; with Ruxolitinib + OSI-027 (first compound 0.253 µM) it was 0.296; with Ruxolitinib + OSI-027 (first compound 0.8 µM), 1.22. The relative viability with Ruxolitinib + OSI-027 (first compound 2.53 µM) was 0.51; with Ruxolitinib + OSI-027 (first compound 8 µM), 0.569; with Ruxolitinib + Pemetrexed (first compound 0.08 µM), 0.212; with Ruxolitinib + Pemetrexed (first compound 0.253 µM) it was 0.198; with Ruxolitinib + Pemetrexed (first compound 0.8 µM), 0.192; in the assay with Ruxolitinib + Pemetrexed (first compound 2.53 µM), 0.19. In the assay with Ruxolitinib + Pemetrexed (first compound 8 µM), the relative viability was 0.188.

For PC-3 [JPC-3], the relative viability stood at 0.934 with Vismodegib + Linsitinib (first compound 0.08 µM); 0.941 in the assay with Vismodegib + Linsitinib (first compound 0.253 µM); 1.04 with Vismodegib + Linsitinib (first compound 0.8 µM); 0.988 in the assay with Vismodegib + Linsitinib (first compound 2.53 µM); 0.933 with Vismodegib + Linsitinib (first compound 8 µM); 0.663 with Ruxolitinib + Luminespib (first compound 0.08 µM). Besides, the relative viability was 0.677 with Ruxolitinib + Luminespib (first compound 0.253 µM); 0.755 with Ruxolitinib + Luminespib (first compound 0.8 µM); 0.579 with Ruxolitinib + Luminespib (first compound 2.53 µM); 0.734 in the assay with Ruxolitinib + Luminespib (first compound 8 µM); 0.756 in the assay with Ruxolitinib + OSI-027 (first compound 0.08 µM); 0.702 with Ruxolitinib + OSI-027 (first compound 0.253 µM). For the same cell line, the relative viability was determined as 0.811 with Ruxolitinib + OSI-027 (first compound 0.8 µM); 0.704 with Ruxolitinib + OSI-027 (first compound 2.53 µM); 0.672 with Ruxolitinib + OSI-027 (first compound 8 µM); 1.13 in the assay with Ruxolitinib + Pemetrexed (first compound 0.253 µM); 1.18 in the assay with Ruxolitinib + Pemetrexed (first compound 0.8 µM); 1.11 with Ruxolitinib + Pemetrexed (first compound 2.53 µM). Further, in the assay with Ruxolitinib + Pemetrexed (first compound 8 µM), the relative viability turned out to be 0.907.

Regarding PC-14, the relative viability in the assay with Vismodegib + Linsitinib (first compound 0.08 µM) is 0.897; in the assay with Vismodegib + Linsitinib (first compound 0.253 µM), 0.911; in the assay with Vismodegib + Linsitinib (first compound 0.8 µM), 0.982; with Vismodegib + Linsitinib (first compound 2.53 µM), 0.899; with Vismodegib + Linsitinib (first compound 8 µM) it was 0.998; in the assay with Ruxolitinib + Luminespib (first compound 0.253 µM), 0.181. Besides, the relative viability with Ruxolitinib + Luminespib (first compound 0.8 µM) came to 0.175; with Ruxolitinib + Luminespib (first compound 2.53 µM) it was 0.171; in the assay with Ruxolitinib + Luminespib (first compound 8 µM), 0.169; with Ruxolitinib + OSI-027 (first compound 0.253 µM), 0.949; with Ruxolitinib + OSI-027 (first compound 0.8 µM) it was 1.22; in the assay with Ruxolitinib + OSI-027 (first compound 2.53 µM), 0.608. For the same cell line, the relative viability with Ruxolitinib + OSI-027 (first compound 8 µM) was found to be 0.543; with Ruxolitinib + Pemetrexed (first compound 0.253 µM), 0.117; with Ruxolitinib + Pemetrexed (first compound 0.8 µM), 0.122; in the assay with Ruxolitinib + Pemetrexed (first compound 2.53 µM), 0.139; with Ruxolitinib + Pemetrexed (first compound 8 µM) it was 0.12.

Consider RERF-LC-KJ, for which the relative viability in the assay with Vismodegib + Linsitinib (first compound 0.08 µM) was found to be 0.846; with Vismodegib + Linsitinib (first compound 0.253 µM) it was 0.922; with Vismodegib + Linsitinib (first compound 0.8 µM), 0.796; with Vismodegib + Linsitinib (first compound 2.53 µM) it was 0.823; with Vismodegib + Linsitinib (first compound 8 µM) it was 0.839; in the assay with Ruxolitinib + Luminespib (first compound 0.08 µM) it was 1.21. The relative viability with Ruxolitinib + Luminespib (first compound 0.253 µM) was found to be 1.31; in the assay with Ruxolitinib + Luminespib (first compound 0.8 µM) it was 1.4; in the assay with Ruxolitinib + Luminespib (first compound 2.53 µM), 1.21; with Ruxolitinib + Luminespib (first compound 8 µM), 0.919; with Ruxolitinib + OSI-027 (first compound 0.08 µM), 0.56; with Ruxolitinib + OSI-027 (first compound 0.253 µM), 0.442. In addition, the relative viability worked out at 0.685 with Ruxolitinib + OSI-027 (first compound 0.8 µM); 0.537 with Ruxolitinib + OSI-027 (first compound 2.53 µM); 0.536 with Ruxolitinib + OSI-027 (first compound 8 µM); 0.471 with Ruxolitinib + Pemetrexed (first compound 0.08 µM); 0.485 with Ruxolitinib + Pemetrexed (first compound 0.253 µM); 0.505 in the assay with Ruxolitinib + Pemetrexed (first compound 0.8 µM). The relative viability with Ruxolitinib + Pemetrexed (first compound 2.53 µM) worked out at 0.465; in the assay with Ruxolitinib + Pemetrexed (first compound 8 µM), 0.456.

On to SK-LU-1, for which the relative viability came out at 1.35 with Vismodegib + Linsitinib (first compound 0.08 µM); 1.06 with Vismodegib + Linsitinib (first compound 0.253 µM); 1.23 in the assay with Vismodegib + Linsitinib (first compound 0.8 µM); 0.693 in the assay with Vismodegib + Linsitinib (first compound 2.53 µM); 1.13 in the assay with Vismodegib + Linsitinib (first compound 8 µM); 0.185 with Ruxolitinib + Luminespib (first compound 0.08 µM). Also, the relative viability turned out to be 0.204 with Ruxolitinib + Luminespib (first compound 0.253 µM); 0.255 in the assay with Ruxolitinib + Luminespib (first compound 0.8 µM); 0.182 with Ruxolitinib + Luminespib (first compound 2.53 µM); 0.207 in the assay with Ruxolitinib + Luminespib (first compound 8 µM); 0.413 with Ruxolitinib + OSI-027 (first compound 0.08 µM); 0.36 with Ruxolitinib + OSI-027 (first compound 0.253 µM). The relative viability worked out at 0.393 with Ruxolitinib + OSI-027 (first compound 0.8 µM); 0.295 with Ruxolitinib + OSI-027 (first compound 2.53 µM); 0.291 with Ruxolitinib + OSI-027 (first compound 8 µM); 1.03 in the assay with Ruxolitinib + Pemetrexed (first compound 0.08 µM); 1.02 with Ruxolitinib + Pemetrexed (first compound 0.253 µM); 1.01 with Ruxolitinib + Pemetrexed (first compound 0.8 µM). Moreover, the relative viability in the assay with Ruxolitinib + Pemetrexed (first compound 2.53 µM) worked out at 0.919; with Ruxolitinib + Pemetrexed (first compound 8 µM) it was 0.792.

Consider SK-MES-1, for which the relative viability with Vismodegib + Linsitinib (first compound 0.08 µM) came to 1.04; with Vismodegib + Linsitinib (first compound 0.253 µM), 1.07; with Vismodegib + Linsitinib (first compound 0.8 µM) it was 1.08; with Vismodegib + Linsitinib (first compound 2.53 µM), 0.973; in the assay with Vismodegib + Linsitinib (first compound 8 µM) it was 1.07; with Ruxolitinib + Luminespib (first compound 0.08 µM), 0.782. In addition, the relative viability with Ruxolitinib + Luminespib (first compound 0.253 µM) stood at 0.84; in the assay with Ruxolitinib + Luminespib (first compound 0.8 µM) it was 0.762; in the assay with Ruxolitinib + Luminespib (first compound 2.53 µM), 0.652; with Ruxolitinib + Luminespib (first compound 8 µM), 0.549; with Ruxolitinib + OSI-027 (first compound 0.08 µM), 0.676; with Ruxolitinib + OSI-027 (first compound 0.253 µM) it was 0.587. Also, the relative viability turned out to be 0.702 in the assay with Ruxolitinib + OSI-027 (first compound 0.8 µM); 0.534 with Ruxolitinib + OSI-027 (first compound 2.53 µM); 0.512 in the assay with Ruxolitinib + OSI-027 (first compound 8 µM); 1.03 with Ruxolitinib + Pemetrexed (first compound 0.08 µM); 0.865 with Ruxolitinib + Pemetrexed (first compound 0.253 µM); 1.01 with Ruxolitinib + Pemetrexed (first compound 0.8 µM). The relative viability with Ruxolitinib + Pemetrexed (first compound 2.53 µM) turned out to be 0.849; in the assay with Ruxolitinib + Pemetrexed (first compound 8 µM), 0.823.

For SW 1573, the relative viability stood at 0.823 in the assay with Vismodegib + Linsitinib (first compound 0.08 µM); 0.728 with Vismodegib + Linsitinib (first compound 0.253 µM); 0.789 with Vismodegib + Linsitinib (first compound 0.8 µM); 0.64 with Vismodegib + Linsitinib (first compound 2.53 µM); 0.821 in the assay with Vismodegib + Linsitinib (first compound 8 µM); 0.228 with Ruxolitinib + Luminespib (first compound 0.08 µM). The relative viability came out at 0.214 with Ruxolitinib + Luminespib (first compound 0.253 µM); 0.184 with Ruxolitinib + Luminespib (first compound 0.8 µM); 0.241 with Ruxolitinib + Luminespib (first compound 2.53 µM); 0.21 in the assay with Ruxolitinib + Luminespib (first compound 8 µM); 0.607 in the assay with Ruxolitinib + OSI-027 (first compound 0.08 µM); 0.482 with Ruxolitinib + OSI-027 (first compound 0.253 µM). Also, the relative viability was 0.815 with Ruxolitinib + OSI-027 (first compound 0.8 µM); 0.386 with Ruxolitinib + OSI-027 (first compound 2.53 µM); 0.573 with Ruxolitinib + OSI-027 (first compound 8 µM); 0.878 with Ruxolitinib + Pemetrexed (first compound 0.08 µM); 0.855 in the assay with Ruxolitinib + Pemetrexed (first compound 0.253 µM); 0.957 with Ruxolitinib + Pemetrexed (first compound 0.8 µM). Moreover, the relative viability with Ruxolitinib + Pemetrexed (first compound 2.53 µM) stood at 0.768; with Ruxolitinib + Pemetrexed (first compound 8 µM), 0.867.
